Where a name gives a salt, the structure may show the parent alone.
Key:
alkaline phosphatase [1] = test: Kinetic rate of Thymol Blue release at 600 nm from substrate with serum alkaline phosphatase; assay type: biochemical; settings: for absorbance rate at 600 nm: 0.1 ml Validate A, 25° C.
Description: According to the test procedure of the subject invention, Thymol Blue Monophosphate is hydrolyzed by alkaline phosphatase to Thymol Blue in the presence of phosphorylatable diethanolamine buffer at pH 10.2. The color produced as a result thereof is proportional to enzyme present and the average change in absorbance per minute (ΔA/min) is determined at a wavelength of 600 nm.
Other amino alcohol buffers which can be phosphorylated and which can be used in this test are, for example, 2-ethylaminoethanol, 3-dimethylamino-1, 2-propanediol, 2-methylaminoethanol, those listed by Elias Amador, Clinical Chemistry, 18, 94 (1972) and the like. The amino alcohol buffer is present in an amount sufficient to raise the pH of the reaction mixture to about 10.2. The magnesium activator is used in an amount sufficient to activate the alkaline phosphatase enzyme in the sample to be tested. The concentration of magnesium ion in the substrate reagent is about 1.5 millimoles per liter. The concentration of Thymol Blue Monophosphate in the reagent is not critical but must be sufficient to permit a kinetic reaction to proceed over a period of time without the substrate being exhausted. The preferred concentration of this material is between 1 and 3 millimoles per liter. The serum sample to be tested is contacted with the substrate reagent at a given temperature which may be from about 22° to about 40° C. but preferably at 30° C. or 37° C. While the temperature affects the rate of reaction, the particular temperature used, within the limits of the stability of the sample, is not critical hereto. The average change in absorbance per minute (ΔA/min) at 600 nm is then determined in a spectrophotometer capable of reading absorbance at 600 nm and maintaining constant temperature in the cuvet compartment. By definition, one unit of alkaline phosphatase activity is the amount of enzyme that will hydrolyze one micromole of Thymol Blue Monophosphate to Thymol Blue in one minute at 30° C. The enzyme activity is calculated by the following formula: [formula] where: U/liter =units of enzyme activity per liter at 30° C.

[2] = Storage stability of substrate / reagent (absorbance at 600 nm, TLC); assay type: physicochemical
[3] = Solubility and physical properties; assay type: physicochemical
acid phosphatase = test: Acid Phosphatase - End Point Assay; assay type: biochemical; settings: 1.2 mmol/liter substrate, 20 minutes 37° C.
Description: An end-point procedure may be employed for determination of acid phosphatase activity employing Thymol Blue Monophosphate as the substrate. In this instance, the test serum sample is added to a Thymol Blue Monophosphate solution buffered to a pH of about 5 and the reaction is terminated by addition of an alkaline reagent after 20 minutes reaction time. The absorbance of the sample is then read at 600 nm and the acid phosphatase enzyme activity is determined from a standard curve prepared from a Thymol Blue standard as described above.
A reagent was prepared containing 1.2 mmol/liter of Thymol Blue Monophosphate, 0.05 M Citrate buffer pH 5.0, and 0.1 % non inonic detergent, Tergitol NPX (Union Carbide Corporation).
One ml of this substrate reagent solution was placed in each of two test tubes which were warmed to 37° C. for 5 minutes. To one of the test tubes was added 0.2 ml of a serum sample containing an elevated level of acid phosphatase. The mixture was then permitted to stand at 37° C. for 20 minutes at which time 3.0 mls of alkali reagent (0.1 m Na2 CO3 + 0.1M NaOH) was added to stop the reaction. […]
The absorption of each solution was measured at 600 nm against distilled water. […] From standard curve, the acid phosphatase activity of the serum was calculated to be 6.5 U/liter.

alkaline phosphatase [4] = molecular target: T1, alkaline phosphatase (Homo sapiens, UniProt P05186); test: Serum Alkaline Phosphatase End Point Assay; assay type: biochemical; settings: 1 ml reagent + 0.1 ml serum sample, 10 minutes at 37° C., stopped with NaOH/Na2CO3
T1 construct: from tissue; host or cells: serum
T1 sequence (P05186 18-501 limits assumed): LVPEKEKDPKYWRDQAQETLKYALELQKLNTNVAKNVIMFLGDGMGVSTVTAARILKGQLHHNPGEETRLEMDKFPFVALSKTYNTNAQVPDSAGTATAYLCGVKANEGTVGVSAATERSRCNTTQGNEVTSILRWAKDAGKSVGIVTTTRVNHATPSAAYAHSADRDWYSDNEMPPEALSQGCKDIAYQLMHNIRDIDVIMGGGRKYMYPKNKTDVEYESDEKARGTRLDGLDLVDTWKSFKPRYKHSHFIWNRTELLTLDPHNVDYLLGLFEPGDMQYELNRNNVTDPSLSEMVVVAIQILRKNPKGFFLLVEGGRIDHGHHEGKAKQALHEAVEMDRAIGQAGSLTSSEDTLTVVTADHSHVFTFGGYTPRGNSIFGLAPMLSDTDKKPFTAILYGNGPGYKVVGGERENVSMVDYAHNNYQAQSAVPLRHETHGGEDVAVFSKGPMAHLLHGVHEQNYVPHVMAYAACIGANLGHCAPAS
Description: If so desired an end-point procedure may be employed for determination of serum alkaline phosphatase activity employing Thymol Blue Monophosphate as the substrate. In this instance, the test serum sample is added to the diethanolamine buffered Thymol Blue Monophosphate substrate solution and the reaction is terminated after 10 minutes time by addition of an alkaline reagent such as, for example, 0.1M NaOH and 0.1M Na2 CO3. The absorbance of the sample is read at 600 nm and the enzyme activity is determined from a standard curve prepared from a Thymol Blue standard. The standard curve is prepared by measuring absorbance of dilutions of a known standard and plotting the measured absorbance against the calculated enzyme activity in units per liter.
A substrate for measurement of alkaline phosphatase by the end-point method prepared identical to that of example XVI. One ml of the reagent was placed in a suitable 10 ml tube for measurement of the test specimen and one ml of the reagent was placed in a second tube for measurement of the reagent blank. […] The reagent blank solution was used to set the spectrophotometer at 0 absorption and the specimen tube was then measured and found to have an absorption of 0.329 at 600 nm. From a standard curve constructed from known concentrations of Thymol Blue an activity of alkaline phosphatase of 38 U/liter was determined.

[5] = substrate (not freeze-dried) in DEA buffer

Cc1cc(O)c(C(C)C)cc1C1(c2cc(C(C)C)c(OP(=O)(O)O)cc2C)OS(=O)(=O)c2ccccc21 (stereo not drawn) [X, Thymol Blue Monophosphate Cyclohexylammonium Salt]
absorbance rate at 600 nm (alkaline phosphatase [1]; [5]): 0.0427 min⁻¹
stability of solid by TLC ([2]; after one month standing at room temperature): Thymol Blue was detected on TLC indicating decomposition
hygroscopicity ([3]; orange solid product): hygroscopic

Cc1cc(O)c(C(C)C)cc1C1(c2cc(C(C)C)c(OP(=O)(O)O)cc2C)OS(=O)(=O)c2ccccc21 (stereo not drawn) [Thymol Blue Monophosphate]
absorption at 600 nm of test serum sample (acid phosphatase; citrate buffer pH 5.0, 0.2 ml serum with elevated acid phosphatase, against distilled water): 0.364
net increase in absorption over blank (acid phosphatase; citrate buffer pH 5.0, 0.2 ml serum): 0.253 absorption units
change in absorbance (ΔA/min) at 600 nm (alkaline phosphatase [1]; 2 ml substrate 1.5 mmol/liter, DEA buffer pH 10.2, MgCl2, 0.05 ml serum to be tested, 30° C.): 0.022
absorption at 600 nm of specimen tube against reagent blank (alkaline phosphatase [4]): 0.329

Cc1cc(O)c(C(C)C)cc1C1(c2cc(C(C)C)c(OP(=O)(O)O)cc2C)OS(=O)(=O)c2ccccc21 (stereo not drawn) [II, Thymol Blue Monophosphate (AMPD Salt)]
performance as substrate for alkaline phosphatase (release of Thymol Blue) (alkaline phosphatase [1]; pH 10.2 diethanolamine buffer with magnesium chloride, sera containing alkaline phosphatase): performed as a substrate for alkaline phosphatase

Cc1cc(O)c(C(C)C)cc1C1(c2cc(C(C)C)c(OP(=O)(O)O)cc2C)OS(=O)(=O)c2ccccc21 (stereo not drawn) [XI, Thymol Blue Monophosphate Sodium Salt Solution]
absorbance rate at 600 nm (alkaline phosphatase [1]; [5]): 0.0577 min⁻¹

Cc1cc(O)c(C(C)C)cc1C1(c2cc(C(C)C)c(OP(=O)(O)O)cc2C)OS(=O)(=O)c2ccccc21 (stereo not drawn) [VIII, Sodium Thymol Blue Monophosphate Solution]
rate at 600 nm (alkaline phosphatase [1]; 1 ml substrate solution + 1 ml 0.6 M DEA buffer pH 10.2, 0.1 ml Validate A, temperature not given): 0.0758 min⁻¹
solubility in absolute ethanol ([3]; yellow orange solid): slightly soluble
solubility in water ([3]; yellow orange solid): readily soluble

Cc1cc(O)c(C(C)C)cc1C1(c2cc(C(C)C)c(OP(=O)(O)O)cc2C)OS(=O)(=O)c2ccccc21 (stereo not drawn) [XII, Thymol Blue Monophosphate Ammonium Salt]
absorbance rate at 600 nm (alkaline phosphatase [1]; substrate (not freeze-dried) in DEA buffer, Monophosphate Ammonium Salt): 0.0486 min⁻¹

Cc1cc(O)c(C(C)C)cc1C1(c2cc(C(C)C)c(OP(=O)(O)O)cc2C)OS(=O)(=O)c2ccccc21 (stereo not drawn) [I, Thymol Blue Monophosphate, Sodium Salt Solution]
rate of reaction at 600 nm (alkaline phosphatase [1]; 2 ml working reagent (DEA buffer pH 10.2) + 50 μl Validate A control serum, 30° C.): 0.0308 min⁻¹

Cc1cc(O)c(C(C)C)cc1C1(c2cc(C(C)C)c(OP(=O)(O)O)cc2C)OS(=O)(=O)c2ccccc21 (stereo not drawn) [III, Phosphorylated Thymol Blue]
absorbance rate (ΔA/min.) at 600 nm (alkaline phosphatase [1]; 2 mg solid in 2.9 ml diethanolamine buffer pH 10.2, 0.1 ml Validate A): 0.0180 min⁻¹
absorbance rate (ΔA/min.) at 600 nm (alkaline phosphatase [1]; 5 mg sample in diethanolamine buffer pH 10.2, 0.1 ml Validate A): 0.028 min⁻¹

Cc1cc(O)c(C(C)C)cc1C1(c2cc(C(C)C)c(OP(=O)(O)O)cc2C)OS(=O)(=O)c2ccccc21 (stereo not drawn) [IV, Thymol Blue Monophosphate in Diethanolamine Buffer]
rate at 600 nm (alkaline phosphatase [1]; 2.9 ml test volume in 1.0M DEA buffer pH 10.2, 0.1 ml Lederzyme Control Sera, 30° C.): 0.037 min⁻¹
absorbance at 600 nm of buffered substrate, initial ([2]; 2.9 ml test volume, 1.0M DEA buffer pH 10.2, fresh): 0.131
frozen buffered substrate after storage (absorbance) ([2]; frozen, 6 months): remained unchanged
activity toward alkaline phosphatase after storage ([2]; refrigerated at 2° to 8° C. over 6 months): remained unchanged
absorbance at 600 nm of buffered substrate after storage ([2]; refrigerated at 2° to 8° C. over 6 months, increase due to gradual hydrolysis): approximately 0.550

Cc1cc(O)c(C(C)C)cc1C1(c2cc(C(C)C)c(OP(=O)(O)O)cc2C)OS(=O)(=O)c2ccccc21 (stereo not drawn) [XIII, Thymol Blue Monophosphate, Tris (hydroxymethyl)aminomethane Salt]
substrate activity with alkaline phosphatase (alkaline phosphatase [1]; aqueous solution of the salt, clear amber liquid): potent substrate activity
absorbance rate at 600 nm (alkaline phosphatase [1]; freeze-dried reagent reconstituted): 0.0552 min⁻¹
absorbance rate at 600 nm (alkaline phosphatase [1]; [5]): 0.0600 min⁻¹
